Laboratory results: patent US20020150629A1, “Zinc-supplementary compositions for oral administration” (priority 2000, published 2002)

Experiment: Bioavailability of zinc after administration to the duodenum of rats (plasma zinc AUC vs intravenous zinc acetate)
Details: for absorption promoting action (in words): 10 mg/kg
Description: Wistar rats of 8 weeks age were used in this experiment. The rats were fasted for 24 hours before administration of zinc acetate alone, a mixture of zinc acetate and a dipeptide listed in Table 1 at a molar ratio of dipeptide to zinc of 1:1, or a complex of zinc and L- or D-carnosine at a molar ratio of dipeptide to complex of 1:1. Each test composition was administered to the duodenum of ether-anesthetized rat as a solution or suspension in physiological saline. The dose of the composition was 10 mg/kg body weight as zinc in each case. Blood samples were collected before administration, and 1,3,5 and 7 hours after the administration. Plasma levels of zinc were determined using Zn Test Wako Kit (available from Wako Pure Chemical Industries, Ltd.). […] The bioavailability (BA) of zinc was calculated by the above comparison.
Using the same method as above, the bioavailability of zinc was determined at varying molar ratios of L-carnosine to zinc from zero to 30. The results are shown in FIG. 1 of the accompanying drawings.
The dose of a 1:1 molar mixture of L-carnosine and zinc acetate was varied from 3 mg/kg to 100 mg/kg in terms of zinc. Analogous to Part 1, AUCs and bioavalabilities were determined and compared with those of administration of zinc acetate alone. The results are shown in FIG. 2 of the accompanying drawing.

Row | Molecule | absorption promoting action (in words) (rat, in vivo) | BA (%) bioavailability of zinc (rat, in vivo) | other results
1 | NCCC(=O)N[C@H](Cc1cnc[nH]1)C(=O)O [D-carnosine] | not | – | –
2 | NCCC(=O)N[C@@H](Cc1cnc[nH]1)C(=O)O [L-carnosine, N-β-alanyl-L-histidine] | exhibited a similar absorption promoting action | – | bioavailability of zinc at varying molar ratios of L-carnosine to zinc (FIG. 1) (rat, in vivo): increased with increase in the molar ratio
3 | CC(=O)[O-].CC(=O)[O-].[Zn+2] [Zinc acetate] | – | – | BA (%) bioavailability of zinc (fasted Wistar rats, administered to the duodenum, 10 mg/kg as zinc, dipeptide:zinc 1:1, AUC up to 7 hours vs i.v. zinc acetate 1 mg/kg): 8.6 ± 0.3%
4 | D-carnosine zinc complex | – | 6.7 ± 0.8% | –
5 | L-carnosine zinc complex | – | 11.7 ± 0.4 % | –
